Assay results as given in paper PMC11012124, “Synthesis of Novel Triazine-Based Chalcones and 8,9-dihydro-7H-pyrimido[4,5-b][1,4]diazepines as Potential Leads in the Search of Anticancer, Antibacterial and Antifungal Agents” (International Journal of Molecular Sciences, 2024).
Converted amounts (≈) assume the structure as drawn.

Tests used:
[1] = system: human red blood cells (huRBC); assay: Hemolytic activity, spectrophotometric; assay type: cell-based; conditions: 200 μg/mL, 24 h, 37 °C
SR = conditions: 48 h
LOX IMVI = conditions: 48 h; for GI50: LOX IMVI
MOLT-4 = conditions: MOLT-4, 48 h
CCRF-CEM = conditions: 48 h
K-562 = conditions: K-562, 48 h
S. aureus ATCC 43300 = assay: Antibacterial MIC, microdilution; assay type: cell-based; conditions: Staphylococcus aureus; S. aureus ATCC 43300 (MRSA)
A. flavus (ATCC 9170) = assay: Antifungal broth microdilution (CLSI); assay type: cell-based; conditions: ATCC9170; Afl: Aspergillus flavus
How it was run: (§1)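 Broth microdilution followed CLSI M27-A3 for yeasts and the filamentous-fungi reference method, in 200 μL final volume with DMSO-matched growth controls. Plates were incubated in the dark and humid at 30 °C for a time suited to each fungus; testing was done in triplicate.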

[2] = system: Candida albicans (ATCC 10231); assay: Antifungal broth microdilution (CLSI); assay type: cell-based; conditions: ATCC10231; Ca: Candida albicans
How it was run: as §1

[3] = system: Cryptococcus neoformans (ATCC 32264); assay: Antifungal broth microdilution (CLSI); assay type: cell-based; conditions: ATCC32264; Cn: Cryptococcus neoformans
How it was run: as §1

[4] = system: A. fumigatus (ATCC 26934); assay: Antifungal broth microdilution (CLSI); assay type: cell-based; conditions: ATCC26934; Afu: Aspergillus fumigatus
How it was run: as §1

[5] = system: Trichophyton rubrum (CCC 134-2000); assay: Antifungal broth microdilution (CLSI); assay type: cell-based; conditions: Tr: Trichophyton rubrum
How it was run: as §1

[6] = system: Microsporum gypseum (CCC 115); assay: Antifungal broth microdilution (CLSI); assay type: cell-based; conditions: Nannizzia gypsea; Mg: Microsporum gypseum
How it was run: as §1

A. niger (ATCC 9029) = assay: Antifungal broth microdilution (CLSI); assay type: cell-based; conditions: ATCC9029; Ani: Aspergillus niger
How it was run: as §1

Galleria mellonella = assay: Toxicity in the Galleria mellonella model; conditions: G. mellonella larvae, at the higher doses
Description: G mellonella larvae were cultivated in the laboratory and healthy, beige larvae weighing 150–200 mg, were selected for toxicity assays.

U251 = conditions: U251, 48 h
SF-539 = conditions: human, 48 h

| SMILES | MIC (A. flavus (ATCC 9170)) | MIC [2] | MIC [3] | MIC [4] | MIC [5] | MIC [6] | MIC (A. niger (ATCC 9029)) | other results |
| --- | --- | --- | --- | --- | --- | --- | --- | --- |
| Cc1ccc(C2CC(c3ccc(Nc4nc(NCCO)nc(Nc5ccc(Cl)cc5)n4)cc3)=Nc3c(N)nc(N)nc3N2)cc1 (stereo not shown) [33b] |  |  |  |  |  |  |  | % Hemolysis [1]: 100% |
| COc1cc(/C=C/C(=O)c2cc(OC)c(OC)c(OC)c2)ccc1Oc1nc(NCCO)nc(N2CCOCC2)n1 [20d] |  |  |  |  |  |  |  | GI50 (SR): 780 nM; GI50 (LOX IMVI): 640 nM |
| Nc1nc(N)c2c(n1)NC(c1ccc(F)cc1)CC(c1ccc(Nc3nc(NCCO)nc(Nc4ccc(Cl)cc4)n3)cc1)=N2 (stereo not shown) [33f] |  |  |  |  |  |  |  | GI50 (MOLT-4): 530 nM; GI50 (SR): 670 nM; GI50 (CCRF-CEM): 750 nM; GI50 (K-562): 490 nM |
| Nc1nc(N)c2c(n1)NC(c1ccc(C(F)(F)F)cc1)CC(c1ccc(Nc3nc(NCCO)nc(Nc4ccc(Cl)cc4)n3)cc1)=N2 (stereo not shown) [33g] |  |  |  |  |  |  |  | GI50 (MOLT-4): 890 nM; MIC (S. aureus ATCC 43300): 31.2 µg/mL (≈ 46.2 µM); GI50 (K-562): 640 nM |
| COc1cc(/C=C/C(=O)c2cc(OC)c(OC)c(OC)c2)ccc1Oc1nc(Nc2ccc(F)cc2)nc(N(C)C)n1 [21d] | > 250 µg/mL | > 250 µg/mL | > 250 µg/mL | > 250 µg/mL | 125 µg/mL (≈ 217 µM) | > 250 µg/mL | 125 µg/mL (≈ 217 µM) | GI50 (MOLT-4): 470 nM; GI50 (LOX IMVI): 480 nM; mortality (Galleria mellonella): ≤ 25%; GI50 (U251): 500 nM |
| COc1cc(/C=C/C(=O)c2ccccc2)ccc1Oc1nc(Nc2ccc(F)cc2)nc(N(C)C)n1 [21a] |  |  |  |  |  |  |  | mortality (Galleria mellonella): ≤ 25% |
| CN(C)c1nc(NCCNS(=O)(=O)c2ccc(C(=O)/C=C/c3ccc(Cl)cc3)cc2)nc(Nc2ccc(F)cc2)n1 [24e] | > 250 µg/mL | > 250 µg/mL | > 250 µg/mL | > 250 µg/mL | > 250 µg/mL | > 250 µg/mL | > 250 µg/mL |  |
| CN(C)c1nc(NCCNS(=O)(=O)c2ccc(C3=Nc4c(N)nc(N)nc4NC(c4ccc(C(F)(F)F)cc4)C3)cc2)nc(N2CCOCC2)n1 (stereo not shown) [30g] | > 250 µg/mL | 125 µg/mL (≈ 172 µM) | 125 µg/mL (≈ 172 µM) | > 250 µg/mL | 250 µg/mL (≈ 344 µM) | > 250 µg/mL | > 250 µg/mL | mortality (Galleria mellonella): ≤ 25% |
| COc1cc(/C=C/C(=O)c2ccc(S(=O)(=O)NCCNc3nc(Nc4ccc(F)cc4)nc(N(C)C)n3)cc2)cc(OC)c1OC [24d] |  |  |  |  |  |  |  | CC50 (LOX IMVI; human): 5930 nM; CC50 (SF-539): 5620 nM |
| COc1ccc(/C=C/C(=O)c2ccc(S(=O)(=O)NCCNc3nc(Nc4ccc(F)cc4)nc(N(C)C)n3)cc2)cc1 [24c] | > 250 µg/mL | > 250 µg/mL | > 250 µg/mL | > 250 µg/mL | 125 µg/mL (≈ 211 µM) | > 250 µg/mL | > 250 µg/mL |  |
| CN(C)c1nc(NCCNS(=O)(=O)c2ccc(C3=Nc4c(N)nc(N)nc4NC(c4ccc(C(F)(F)F)cc4)C3)cc2)nc(Nc2ccc(F)cc2)n1 (stereo not shown) [31g] | > 250 µg/mL | > 250 µg/mL | > 250 µg/mL | 62.5 µg/mL (≈ 83.1 µM) | 250 µg/mL (≈ 333 µM) | > 250 µg/mL | > 250 µg/mL |  |
| CN(C)c1nc(NCCNS(=O)(=O)c2ccc(C(=O)/C=C/c3ccc(Cl)cc3)cc2)nc(N2CCOCC2)n1 [23e] | > 250 µg/mL | 250 µg/mL (≈ 437 µM) | 250 µg/mL (≈ 437 µM) | > 250 µg/mL | 125 µg/mL (≈ 218 µM) | > 250 µg/mL | > 250 µg/mL |  |
| COc1cc(C2CC(c3ccc(Cl)cc3)=Nc3c(N)nc(N)nc3N2)ccc1Oc1nc(Nc2ccc(F)cc2)nc(N(C)C)n1 (stereo not shown) [29e] | > 250 µg/mL | > 250 µg/mL | > 250 µg/mL | > 250 µg/mL | 62.5 µg/mL (≈ 97.3 µM) | > 250 µg/mL | > 250 µg/mL |  |
